The structures appear in SMILES notation.

For series [1] the following is noted: hairless guinea pigs, after microneedle exposure and occlusion; cited from earlier work.
Series [2] in a line: Transepidermal water loss (TEWL) study of microneedle pore viability with COX inhibitor gels under occlusion. It counts as in vivo. Particulars: gel re-applied daily under occlusion; 5 day study, trial 2. How it is done:
Two trials were completed with subject 1 and one trial was completed with subject 2. During the initial trial, subject one was tested for 7 days with only Solaraze® Gel. 100 microneedle arrays were placed on each test site and covered with gel. The gel was then protected with an occlusive backing membrane (3M™ Scotchpak™ 9733 2.05 mil polyester film, St. Paul, Minn.) and secured to the test site with Bioclusive* tape (Johnson and Johnson Medical Ltd, Gargrave, Skipton, UK). Along with gel test sites, control sites with and without microneedle insertions were tested minus gel. The control sites were treated in the same manner with gel minus the 100 microneedle insertions. The initial trial lasted for 7 days followed by a 5 day study.
In trial 2, the same procedure was performed on a different test and control sites using each of the following gel formulations: placebo, Solaraze® Gel, 3% diclofenac, 3% celecoxib, 10% ibuprofen, 10% ketoprofen, and controls with and without microneedle treatment. Each day, the protective covering was removed, areas were blotted 3 times with a Kimwipe® (Kimberly-Clark, Roswell, Ga.) to remove gel and trapped moisture and TEWL readings were made with an RG1 Evaporimeter (cyberDERM, Broomall, Pa.). The treated areas had the formula re-applied and immediately covered to prevent closure of the microneedle created pores.

For series [3] the following is noted: used in conjunction with microneedles; cited from earlier work.

On to `Cl.Oc1ccc2c3c1O[C@H]1[C@H](O)CC[C@@]4(O)[C@@H](C2)N(CC2CC2)CC[C@]314` [6(3-naltrexol hydrochloride], for which the “duration of significant enhancement in microneedle pore viability compared to untreated skin” value in series [1] was 48 h.
For the compound `O=C(O)Cc1ccccc1Nc1c(Cl)cccc1Cl` [diclofenac], the “enhancement in pore viability (TEWL), microneedle-treated areas versus control areas” value in series [2] is reported as “enhanced viability of microneedle pores”.
On to `O=C1CC[C@@]2(O)[C@H]3Cc4ccc(O)c5c4[C@@]2(CCN3CC2CC2)[C@H]1O5` [naltrexone], for which, in series [3], the “time for which steady state naltrexone concentrations remained” value was 48 h and the “time until steady state naltrexone concentrations were achieved” value is “two”.

Values taken from patent US20220117884A1, “Methods and Compostitions for Enhancing the Viability of Microneedle Pores” (priority 2007, published 2022).
